Reference: the NIST ThermoML archive (doi:10.1016/j.jct.2011.02.008)
Numbers after ± are expanded uncertainties.

Settings: Liquid, Vibrating tube method

C1CCCCC1 [cyclohexane]
mass density [kg/m3]
Settings | 288.15 K | 298.15 K | 308.15 K | 318.15 K | 328.15 K | 338.15 K | 348.15 K | 358.15 K
100 kPa | 782.7 ± 2.4 | 773.2 ± 2.4 | 763.6 ± 2.4 | 754 ± 2.4 | 744.4 ± 2.4 | 734.5 ± 2.4 | 724.6 ± 2.4 | 714.3 ± 2.4
1000 kPa | 783.7 ± 2.4 | 774 ± 2.4 | 764.5 ± 2.4 | 755 ± 2.4 | 745.4 ± 2.4 | 735.6 ± 2.4 | 725.7 ± 2.4 | 715.6 ± 2.4
5000 kPa | 787 ± 2.4 | 777.6 ± 2.4 | 768.2 ± 2.4 | 759 ± 2.4 | 749.7 ± 2.4 | 740.2 ± 2.4 | 730.8 ± 2.4 | 720.9 ± 2.4
10000 kPa | 790.7 ± 2.4 | 781.8 ± 2.4 | 772.6 ± 2.4 | 763.7 ± 2.4 | 754.7 ± 2.4 | 745.7 ± 2.4 | 736.5 ± 2.4 | 727.2 ± 2.4
15000 kPa | 794.1 ± 2.4 | 785.6 ± 2.4 | 776.8 ± 2.4 | 767.9 ± 2.4 | 759.5 ± 2.4 | 750.7 ± 2.4 | 741.9 ± 2.4 | 732.9 ± 2.4
20000 kPa | – | 789.3 ± 2.4 | 780.8 ± 2.4 | 772.4 ± 2.4 | 764 ± 2.4 | 755.5 ± 2.4 | 747 ± 2.4 | 738.3 ± 2.4
25000 kPa | – | 792.9 ± 2.4 | 784.6 ± 2.4 | 776.4 ± 2.4 | 768.2 ± 2.4 | 760 ± 2.4 | 751.7 ± 2.4 | 743.3 ± 2.4
30000 kPa | – | 796.8 ± 2.4 | 788.3 ± 2.4 | 780.3 ± 2.4 | 772.3 ± 2.4 | 764.3 ± 2.4 | 756.2 ± 2.4 | 748.1 ± 2.4
35000 kPa | – | 799.7 ± 2.4 | 791.8 ± 2.4 | 784.1 ± 2.4 | 776.1 ± 2.4 | 768.4 ± 2.4 | 760.5 ± 2.4 | 752.6 ± 2.4
40000 kPa | – | – | 795.2 ± 2.4 | 787.7 ± 2.4 | 779.9 ± 2.4 | 772.3 ± 2.4 | 764.6 ± 2.4 | 757 ± 2.4
45000 kPa | – | – | – | 791.1 ± 2.4 | 783.5 ± 2.4 | 776 ± 2.4 | 768.6 ± 2.4 | 761.1 ± 2.5
50000 kPa | – | – | – | 794.4 ± 2.4 | 787 ± 2.4 | 779.7 ± 2.5 | 772.3 ± 2.5 | 765 ± 2.5
55000 kPa | – | – | – | – | – | 783.2 ± 2.5 | 776 ± 2.5 | 768.9 ± 2.5
